Source: patent US9884086B2, “Administration method for anticancer drugs” (Dong-A University Research Foundation for Industry—Academy …, priority 2014, dated 2018)

Columns and labels:
cryptochrome 1 (Cry1) = experiment: Cry1 expression over time after forskolin bio-cycle synchronization in WT MEFs (immunoblotting); type: cell-based, mouse
Procedure: (§1) For cell culture, 1 ml of 10% (vol/vol) fetal bovine serum (FBS, Hyclone Co.) was added to 10 ml of Dulbecco's modified Eagle's medium (DMEM), followed by adding 100 μl of 1% (vol/vol) penicillin-streptomycin thereto. Then, NIH3T3 cells, wild-type mouse embryo fibroblasts (WT MEFs), and mouse embryo fibroblasts free from cryptochrome 1 (Cry1) and cryptochrome 2(Cry2) (Cry^DKO MEFs), respectively, were cultured in the above prepared culture medium. For bio-cycle synchronization, fused cells were further cultured for additional three (3) days after adding […] forskolin to the above medium. An extract of cytoplasm and nucleus protoplasm as well as the whole cell fusion were prepared. A chromatin-rich part could be obtained by treating 10-U DNase I (Promega) and 100-U micrococcal nuclease at 30° C. for 30 minutes and from the nucleus protoplasm through extraction using fillets. Each part was analyzed by SDS-PAGE and both of Ponceau S staining and immunoblotting. According to typical immunoblotting orders, amounts of proteins were determined using the above parts. For quantification of the immunoblotting, ImageQuant 5.2 software (Molecular Dynamics) was used. […]

ATR = experiment: phosphorylation of p53 and Chk1 (proxy marker of ATR) after UV radiation in forskolin-synchronized cells; type: cell-based, mouse; conditions: NIH3T3 cells
Procedure: as §1, with “above medium. For UV radiation, using a germicidal lamp (GE) mainly emitting UV-C beam, UV light was emitted to the fused cells by 5 J/m^2. Then, a fluorescence rate of the incident beam was measured using a UV-C sensor. An extract” for “above medium. An extract”

ATR pathway = ATR pathway markers in mouse liver after cisplatin injection at CT08 or CT20 (immunoblotting); type: in vivo
Procedure: Before sacrificing C57BL/6J male mouse, the animal was placed under an environment where the daytime and nighttime were maintained for 12 hours each […], during 2 weeks. After exposing the mouse to CO2 and putting the animal to death, the liver of the mouse was cut into pieces having a size of less than 2 mm and washed with phosphate buffer saline (PBS), followed by freezing the same in liquid nitrogen. The frozen liver piece was pulverized using a ceramic mortar and pestle under liquid nitrogen to prepare a whole cell fusion. An extract of cytoplasm and nucleus protoplasm as well as the whole cell fusion were prepared. A chromatin-rich part could be obtained by treating 10-U DNase I (Promega) and 100-U micrococcal nuclease at 30° C. for 30 minutes and from the nucleus protoplasm through extraction using fillets. Each part was analyzed by SDS-PAGE and both of Ponceau S staining and immunoblotting. According to typical immunoblotting orders, amounts of proteins were determined using the above parts. For quantification of the immunoblotting, ImageQuant 5.2 software (Molecular Dynamics) was used. Antibodies used in the experiments were as follows: GAPDH, p-Chk1 5345, p53, p-p53 S15 (Cell Signaling Technology), ATR, RPA70 (Replication Protein A), Chk1, Actin (Santa Cruz Biotechnology), Clock, Cry1, Cry2, p-MCM2 5108, Tim (Timeless), Tipin (Bethyl Laboratory), histone H3 (Millipore), Per2 (BD Biosciences) and platinum GpG (Oncolyze). Tim and Cry1, Tim protein complexes were precipitated using protein A/G-coupled sepharose (Sigma) collected beforehand as well as an anti-Tim antibody. In order to detect Cry1 precipitated together with Tim, immunoblotting was implemented. In the present disclosure, CT refers to a time having passed from a time period when the bio-cyclic rhythm was induced. For instance, CT08 means 8 hours after the induction of the bio-cyclic rhythm, and CT20 means 20 hours after the induction of the bio-cyclic rhythm. […]

WT MEFs cells = experiment: removal of Platinum-GpG adducts after cisplatin in forskolin-synchronized cells (immunoslot blotting); type: cell-based, mouse; conditions: cisplatin given 12 hours vs 24 hours after forskolin treatment
Procedure: For cell culture, 1 ml of 10% (vol/vol) fetal bovine serum (FBS, Hyclone Co.) was added to 10 ml of Dulbecco's modified Eagle's medium (DMEM), followed by adding 100 μl of 1% (vol/vol) penicillin-streptomycin thereto. Then, NIH3T3 cells, wild-type mouse embryo fibroblasts (WT MEFs), and mouse embryo fibroblasts free from cryptochrome 1 (Cry1) and cryptochrome 2(Cry2) (Cry^DKO MEFs), respectively, were cultured in the above prepared culture medium. For bio-cycle synchronization, fused cells were further cultured for additional three (3) days after adding […] forskolin to the above medium. After separating genomic DNA from MEFs cells using QIAamp DNA Mini kit (Qiagen), […] of genomic DNA was moved to a nitrocellulose membrane by a BioDot SF Microfiltration apparatus (BioRad). The genomic DNA was heated at 80° C. for 2 hours under vacuum to be bound to the nitrocellulose membrane. Using a mono-antibody specifically recognizing Platinum-GpG adducts (Oncolyze), an amount of DNA damaged by cisplatin was relatively measured. Then, it may be identified whether DNA bound to the nitrocellulose membrane is quantified on Gel-doc after staining the DNA with Sybr-gold as a DNA staining reagent.

[1] = i.p. injection; cited from earlier work

Compound	time of maximum expression of cryptochrome 1 (Cry1) after forskolin treatment (cryptochrome 1 (Cry1)) [h]	time of minimum expression of cryptochrome 1 (Cry1) after forskolin treatment (cryptochrome 1 (Cry1)) [h]	extent of phosphorylation of p53 and Chk1, cell 12 hours after forskolin treatment as compared to cell 24 hours after (ATR) [times]	accumulation of replicated protein A (RPA70) in chromatin (ATR pathway; liver chromatin, after cisplatin injection at CT20)	p-MCM2 signal, mouse at CT20 as compared to the mouse at CT08 (ATR pathway; mouse liver, at 8 hours or later after the cisplatin injection) [times]	extents of expression of p-Chk1 and p-p53 (ATR pathway; mouse liver, cisplatin injected at CT08 and CT20)	removal rate of Platinum-GpG (WT MEFs cells)	time until cisplatin reaches the liver [1]
C=C[C@@]1(C)CC(=O)[C@]2(O)[C@@]3(C)[C@@H](O)CCC(C)(C)[C@@H]3[C@H](O)[C@H](OC(C)=O)[C@@]2(C)O1 [forskolin]	12	24	2 to 3	–	–	–	–	–
N.N.[Cl][Pt][Cl] [cisplatin]	–	–	–	accumulation of replicated protein A was identified in chromatin	≥ 2	insignificant	higher at 12 hours after forskolin treatment	about 2 hours
